target: T1, FimH proteins (Escherichia coli, UniProt Q1R2J4); assay: hemagglutination inhibition (HAI) assay: UPEC UTI89 with guinea pig red blood cells; format: cell-based, uropathogenic Escherichia coli (UPEC) UTI89; details: read-out: HAI EC90 (minimum concentration for inhibiting hemagglutination)
T1 construct: endogenous in cells; host or cells: UPEC strain UTI89 (whole bacteria)
Description: In the present example, the mannose derivatives A1 to A107 that were prepared in Examples 1 to 12 were analyzed in hemagglutination inhibition (HAI) assays to determine inhibitory effects of the compounds on the function/activity of FimH proteins.
1. Preparation of a guinea pig red blood cell solution: an adult guinea pig was anesthetized with ethyl ether, blood was sampled from the heart, placed in an EDTA blood collection tube, and centrifuged at 2,000 rpm for 5 min, serum was removed, the sample was transferred in a centrifuge tube (15 mL), sterilized PBS was added, the sample was centrifuged at 1,500 rpm for 10 min, a supernatant was removed, the sample was transferred in a centrifuge tube (50 mL), PBS was added, the sample was centrifuged at 1,500 rpm for 10 min and repeatedly washed twice, and red blood cells were slightly aspirated into a new centrifuge tube (50 mL) to obtain a 5% guinea pig red blood cell solution.
2. Preparation of a bacteria solution: a UPEC cell line UTI89 was inoculated on a medium plate and cultured in an incubator at 37° C. overnight. Single colonies were picked and inoculated in an LB medium in a sterilized conical flask, and cultured at 37° C. and 170 r/min overnight. When an OD value at 540 nm was about 0.8 on a microplate reader, the bacterial concentration was about 10^8-10^9 cfu/mL, the bacteria solution was centrifuged at 2,000 rpm for 10 min, a supernatant was removed, and 1 mL of bacteria solution was prepared into 0.1 mL of PBS bacteria solution. […] The bacteria and the medium were uniformly mixed by shaking, and reacted in an incubator at 25° C. for about 20-40 min. When the plate was read, the wells in which complete agglutination occurred were used as 4HAU for the hemagglutination titer of the bacteria. For example, if the endpoint titer of hemagglutination is 1:256, the dilution multiple of the 4HAU antigen is 1:64 (256 divided by 4). Bacteria solutions at corresponding concentrations were prepared according to the experimental results.
3. Activity assay: a compound to be tested or a standard product was placed in a 96-well microtest plate, 50 μL of drug at an initial concentration of 200 μM was placed in the first well, and from the second well, 25 μL of PBS was added to each well to dilute the drug in proportion. The drug and the medium in the first well were mixed, 25 μL of mixed drug solution was placed in the second well, the drug solution was diluted in sequence to the last well, and 25 μL of drug solution was removed. 25 μL of bacteria solution was placed in each well of the culture plate containing the diluted drug, and cultured at 37° C. for 40 min. 25 μL of 5% guinea pig red blood cell suspension was placed in each well, and slightly uniformly mixed with the drug, and the plate was placed at 4° C. for about 1 h. When results were determined, the plate was tilted 60°, and whether the red blood cells flowed like teardrops was observed.
Mannosyl proteins are expressed on the surface of red blood cells in a guinea pig, which can bind to FimH proteins of UTI89 to cause hemagglutination. It can be observed with the naked eyes that the red blood cells form film-like agglutination at the bottom of the well, and loose red dots can be seen in the center. The FimH protein inhibitor competitively binds to FimH proteins to inhibit hemagglutination. It can be observed with the naked eyes that all the red blood cells sink and concentrate at the bottom of the well to form dense dots. The minimum concentration for inhibiting hemagglutination is expressed as an EC90 value of a compound. The final concentration of the compound in the first well is 66700 nM, the concentration in the second well is half that in the first well, the concentration in the third well is half that in the second well, and so on. […] A low EC90 value indicates high activity of a compound.

Compound | EC90
CNC(=O)c1cccc(-c2ccc(O[C@H]3O[C@H](CO)[C@@H](O)[C@H](O)[C@@]3(O)C#Cc3ccccc3)c(C)c2)c1 [Compound A1] | 8 nM
CNC(=O)c1cccc(-c2ccc(O[C@H]3O[C@H](CO)[C@@H](O)[C@H](O)[C@@]3(O)C#CC3CC3)c(C)c2)c1 [Compound A2] | 16 nM
CNC(=O)c1cccc(-c2ccc(O[C@H]3O[C@H](CO)[C@@H](O)[C@H](O)[C@@]3(O)C#Cc3cnn(C)c3)c(C)c2)c1 [Compound A3] | 16 nM
Cc1cc(Br)ccc1O[C@H]1O[C@H](CO)[C@@H](O)[C@H](O)[C@@]1(O)C#Cc1ccccc1 [Compound A4] | 1040 nM
Cc1ccccc1O[C@H]1O[C@H](CO)[C@@H](O)[C@H](O)[C@@]1(O)C#Cc1ccccc1 [Compound A5] | 520 nM
CC(C)O[C@H]1O[C@H](CO)[C@@H](O)[C@H](O)[C@@]1(O)C#Cc1ccccc1 [Compound A6] | 1040 nM
CCC(C)O[C@H]1O[C@H](CO)[C@@H](O)[C@H](O)[C@@]1(O)C#Cc1ccccc1 (stereo partly drawn) [Compound A7] | 260 nM
CC(C)C(C)O[C@H]1O[C@H](CO)[C@@H](O)[C@H](O)[C@@]1(O)C#Cc1ccccc1 (stereo partly drawn) [Compound A8] | 260 nM
CCC(CC)O[C@H]1O[C@H](CO)[C@@H](O)[C@H](O)[C@@]1(O)C#Cc1ccccc1 [Compound A9] | 130 nM
OC[C@H]1O[C@H](C#Cc2cnn(-c3ccc(OC(F)(F)F)cc3)c2)[C@](O)(C#CC2CC2)[C@@H](O)[C@@H]1O [Compound A10] | 0.13 nM
OC[C@H]1O[C@H](OC2CCCC2)[C@](O)(C#Cc2ccccc2)[C@@H](O)[C@@H]1O [Compound A11] | 520 nM
OC[C@H]1O[C@H](OC2CCCCC2)[C@](O)(C#Cc2ccccc2)[C@@H](O)[C@@H]1O [Compound A12] | 260 nM
OC[C@H]1O[C@H](OC2CCC(F)(F)CC2)[C@](O)(C#Cc2ccccc2)[C@@H](O)[C@@H]1O [Compound A13] | 1040 nM
C#C[C@H]1O[C@H](CO)[C@@H](O)[C@H](O)[C@@]1(O)C#Cc1ccccc1 [Compound A14] | 4160 nM
CC#C[C@H]1O[C@H](CO)[C@@H](O)[C@H](O)[C@@]1(O)C#Cc1ccccc1 [Compound A15] | 520 nM
OC[C@H]1O[C@H](C#CC2CC2)[C@](O)(C#Cc2ccccc2)[C@@H](O)[C@@H]1O [Compound A16] | 130 nM
OC[C@H]1O[C@H](C#Cc2ccccc2)[C@](O)(C#Cc2ccccc2)[C@@H](O)[C@@H]1O [Compound A17] | 130 nM
Cc1cccc(C#C[C@@]2(O)[C@@H](C#Cc3ccccc3)O[C@H](CO)[C@@H](O)[C@@H]2O)c1 [Compound A18] | 260 nM
CC(C)c1cccc(C#C[C@@]2(O)[C@@H](C#Cc3ccccc3)O[C@H](CO)[C@@H](O)[C@@H]2O)c1 [Compound A19] | 520 nM
OC[C@H]1O[C@H](C#Cc2ccccc2)[C@](O)(C#Cc2cccc(C3CC3)c2)[C@@H](O)[C@@H]1O [Compound A20] | 260 nM
CC(C)Oc1cccc(C#C[C@@]2(O)[C@@H](C#Cc3ccccc3)O[C@H](CO)[C@@H](O)[C@@H]2O)c1 [Compound A21] | 260 nM
CS(=O)(=O)c1cccc(C#C[C@@]2(O)[C@@H](C#Cc3ccccc3)O[C@H](CO)[C@@H](O)[C@@H]2O)c1 [Compound A22] | 130 nM
CC(C)n1cc(C#C[C@@]2(O)[C@@H](C#Cc3ccccc3)O[C@H](CO)[C@@H](O)[C@@H]2O)ccc1=O [Compound A23] | 260 nM
OC[C@H]1O[C@H](C#Cc2ccccc2)[C@](O)(C#Cc2cccc3ccccc23)[C@@H](O)[C@@H]1O [Compound A24] | 260 nM
Cc1cccc(C#C[C@H]2O[C@H](CO)[C@@H](O)[C@H](O)[C@@]2(O)C#Cc2ccccc2)c1 [Compound A25] | 260 nM
CC(C)c1cccc(C#C[C@H]2O[C@H](CO)[C@@H](O)[C@H](O)[C@@]2(O)C#Cc2ccccc2)c1 [Compound A26] | 130 nM

Compound | EC90
CC(C)Oc1cccc(C#C[C@H]2O[C@H](CO)[C@@H](O)[C@H](O)[C@@]2(O)C#Cc2ccccc2)c1 [Compound A27] | 130 nM
OC[C@H]1O[C@H](C#Cc2cccc(C(F)(F)F)c2)[C@](O)(C#Cc2ccccc2)[C@@H](O)[C@@H]1O [Compound A28] | 260 nM
OC[C@H]1O[C@H](C#Cc2cccc3ccccc23)[C@](O)(C#Cc2ccccc2)[C@@H](O)[C@@H]1O [Compound A29] | 520 nM
OC[C@H]1O[C@H](C#Cc2ccc3ccccc3c2)[C@](O)(C#Cc2ccccc2)[C@@H](O)[C@@H]1O [Compound A30] | 1040 nM
OC[C@H]1O[C@H](C#Cc2cnn(-c3ccc(OCC4CC4)cc3)c2)[C@](O)(C#CC2CC2)[C@@H](O)[C@@H]1O [Compound A31] | < 0.1 nM
OC[C@H]1O[C@H](C#Cc2cccc(-c3ccccc3)c2)[C@](O)(C#Cc2ccccc2)[C@@H](O)[C@@H]1O [Compound A32] | 130 nM
CC(C)n1cc(C#C[C@H]2O[C@H](CO)[C@@H](O)[C@H](O)[C@@]2(O)C#Cc2ccccc2)ccc1=O [Compound A33] | 8 nM
Cn1cc(C#C[C@H]2O[C@H](CO)[C@@H](O)[C@H](O)[C@@]2(O)C#Cc2ccccc2)cn1 [Compound A34] | 64 nM
Cn1ncc(C#C[C@H]2O[C@H](CO)[C@@H](O)[C@H](O)[C@@]2(O)C#Cc2ccccc2)c1Cl [Compound A35] | 520 nM
Cc1c(C#C[C@H]2O[C@H](CO)[C@@H](O)[C@H](O)[C@@]2(O)C#Cc2ccccc2)cnn1C [Compound A36] | 260 nM
Cc1nn(C)cc1C#C[C@H]1O[C@H](CO)[C@@H](O)[C@H](O)[C@@]1(O)C#Cc1ccccc1 [Compound A38] | 260 nM
CC(C)n1cc(C#C[C@H]2O[C@H](CO)[C@@H](O)[C@H](O)[C@@]2(O)C#Cc2ccccc2)cn1 [Compound A39] | 8 nM
CCn1cc(C#C[C@H]2O[C@H](CO)[C@@H](O)[C@H](O)[C@@]2(O)C#Cc2ccccc2)cn1 [Compound A40] | 32 nM
CCC(C)n1cc(C#C[C@H]2O[C@H](CO)[C@@H](O)[C@H](O)[C@@]2(O)C#Cc2ccccc2)cn1 (stereo partly drawn) [Compound A41] | 8 nM
OC[C@H]1O[C@H](C#Cc2cnn(CC3CC3)c2)[C@](O)(C#Cc2ccccc2)[C@@H](O)[C@@H]1O [Compound A42] | 4 nM
OC[C@H]1O[C@H](C#Cc2cnn(Cc3ccccc3)c2)[C@](O)(C#Cc2ccccc2)[C@@H](O)[C@@H]1O [Compound A43] | 32 nM
OC[C@H]1O[C@H](C#Cc2cnn(C3CCC3)c2)[C@](O)(C#Cc2ccccc2)[C@@H](O)[C@@H]1O [Compound A44] | 8 nM
OC[C@H]1O[C@H](C#Cc2cnn(C3CCCC3)c2)[C@](O)(C#Cc2ccccc2)[C@@H](O)[C@@H]1O [Compound A45] | 1 nM
OC[C@H]1O[C@H](C#Cc2cnn(C3CCCCC3)c2)[C@](O)(C#Cc2ccccc2)[C@@H](O)[C@@H]1O [Compound A46] | 0.5 nM
OC[C@H]1O[C@H](C#Cc2cnn(-c3ccccc3)c2)[C@](O)(C#Cc2ccccc2)[C@@H](O)[C@@H]1O [Compound A47] | 0.25 nM
OC[C@H]1O[C@H](C#Cc2cnn(-c3ccccc3Cl)c2)[C@](O)(C#Cc2ccccc2)[C@@H](O)[C@@H]1O [Compound A48] | 1 nM
OC[C@H]1O[C@H](C#Cc2cnn([C@H]3CCOC3)c2)[C@](O)(C#Cc2ccccc2)[C@@H](O)[C@@H]1O [Compound A49] | 16 nM
OC[C@H]1O[C@H](C#Cc2cnn([C@@H]3CCOC3)c2)[C@](O)(C#Cc2ccccc2)[C@@H](O)[C@@H]1O [Compound A50] | 130 nM
OC[C@H]1O[C@H](C#Cc2cnn(C3CCCOC3)c2)[C@](O)(C#Cc2ccccc2)[C@@H](O)[C@@H]1O (stereo partly drawn) [Compound A51] | 16 nM
OC[C@H]1O[C@H](C#Cc2cnn(C3CCOCC3)c2)[C@](O)(C#Cc2ccccc2)[C@@H](O)[C@@H]1O [Compound A52] | 4 nM

From patent US11964996B2, “2-alkynylmannose derivative and application thereof” (priority 2020, dated 2024)
